Data as given in patent US20220338465A1, “FLUIDIC PLATFORMS FOR PERFUSABLE VASCULARIZED TISSUES” (Massachusetts Institute of Technology, priority 2021, published 2022).
“Also recorded” adds a separate entry of the source.

Key:
HUVEC monoculture = experiment: Inhibitory tests on MVN formation by HUVEC monoculture in fibrin gel under IF, single channel device; assay type: cell-based, human
Protocol: (§1) FIGS. 8A-8E are graphs showing that IF enhances the vasculogenesis ability of EC through upregulation of MMP-2. MVN was formed statically with HUVEC monoculture in 3-channel device MVN was formed with HUVEC monoculture in single channel device under IF induced by 10 mm H2O pressure difference, or with various inhibitors added: 100 μM PAI-1, 200 U/ml aprotinin, 50 μM marimast, 50 μM NSC 405020, 100 μg/ml MMP-1 neutralizing antibody and 100 μg/ml control antibody. Samples were pooled at day 3. n=3 FIGS. 8A-8D are graphs showing the statistical analysis of morphological parameters and perfusability of perfusable vessels cultured with various concentration of ARP-100. IF induced by 10 mm H2O pressure difference were applied to all cases. n=5 devices for control, n=3 devices for each inhibitor treated group. Significance was calculated with two sample t tests. ***P<0.01. FIG. 8E is a graph of vascular permeability measurements of 40 kDa dextran for perfusable MVNs formed under various conditions. n=3 devices for each group, 3 measurements were performed in each device at different ROIs.
(§2) Green fluorescent protein (“GFP”) tagged human umbilical vein endothelial cells (HUVECs) and human lung fibroblasts (HLFs) were seeded in a 7:1 ratio for all static and IF experiments. Devices were imaged under confocal microscopy with dextran dye perfused at day 6, when MVN were interconnected and perfusable. Devices were seeded with HUVECs and HLFs in combination and HUVECs alone.
(§3) Perfusability is a crucial factor when evaluating the quality of engineered MVN, since the major function of vessels is to transport nutrients, oxygen, metabolic wastes and various cells through perfusable lumens. Perfusability is measured as the ratio between dextran dye cover area (perfusable vessels) and GFP HUVEC cover area (all the vessels). […] To better interpret perfusability, MVN with at least one perfusable vessels across the gel region is defined as partially perfusable, and MVN with perfusability over 80% is defined as fully perfusable.
HUVEC monoculture of the same concentration were also seeded in single channel devices of FIG. 5B and subjected to IF.
Culture media was also supplemented with high concentration (100 uM) plasminogen activator inhibitor-1, which inhibits both uPA and tPA, or aprotinin, which inhibits plasmin.
ARP-100 (IC50 values are 12, 200, 4500, >50000 and >50000 nM for MMP-2, -9, -3, -1, -7, respectively) and NSC 405020 (selective inhibitor of the collagenolytic activity of MT1-MMP without affecting the catalytic activity of cellular MT1-MMP) were tested as specific inhibitors for MMP-2 and MMP-14. 14. High concentrations of anti-MMP-1 neutralizing antibody were used to inhibit MMP-1 activity

HUVEC and HLF coculture = experiment: MVN formation by HUVEC and HLF coculture under IF with MMP-2 inhibitor; assay type: cell-based, human; conditions: 20 uM
Protocol: FIGS. 10A-10D are graphs showing that IF enhances formation of fully perfusable microvascular network made by HUVEC and HLF. FIGS. 10A-10D are Statistical analysis of morphological parameters and perfusability of perfusable vessels cultured with various concentration of ARP-100. n=6 devices for control, n=3 devices for each inhibitor treated group. Significance was calculated with two sample t tests. ***P<0.01.
as §2, §3

MMP-9 = MMP-9 (Homo sapiens, UniProt P14780); conditions: read-out: IC50 for MMP-9; cited from earlier work
MMP-9, sequence (P14780 94-707): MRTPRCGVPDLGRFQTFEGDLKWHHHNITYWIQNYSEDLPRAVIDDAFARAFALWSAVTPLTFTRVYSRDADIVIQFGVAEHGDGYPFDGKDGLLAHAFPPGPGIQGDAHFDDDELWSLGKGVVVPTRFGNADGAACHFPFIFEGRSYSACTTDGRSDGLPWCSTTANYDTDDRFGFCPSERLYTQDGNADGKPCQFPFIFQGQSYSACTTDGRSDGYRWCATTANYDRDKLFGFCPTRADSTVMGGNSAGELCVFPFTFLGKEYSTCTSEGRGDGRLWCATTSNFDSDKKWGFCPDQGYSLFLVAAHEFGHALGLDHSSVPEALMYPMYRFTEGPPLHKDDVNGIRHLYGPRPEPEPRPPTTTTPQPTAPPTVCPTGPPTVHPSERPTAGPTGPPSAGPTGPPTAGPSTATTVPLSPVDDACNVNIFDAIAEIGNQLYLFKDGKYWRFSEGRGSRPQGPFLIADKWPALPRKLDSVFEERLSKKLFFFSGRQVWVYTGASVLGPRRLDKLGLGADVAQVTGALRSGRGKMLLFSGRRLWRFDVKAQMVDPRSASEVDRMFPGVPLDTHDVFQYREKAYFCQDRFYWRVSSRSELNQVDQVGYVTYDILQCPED

MMP-3 = MMP-3 (Homo sapiens, UniProt P08254); conditions: cited from earlier work
MMP-3, sequence (P08254 100-477): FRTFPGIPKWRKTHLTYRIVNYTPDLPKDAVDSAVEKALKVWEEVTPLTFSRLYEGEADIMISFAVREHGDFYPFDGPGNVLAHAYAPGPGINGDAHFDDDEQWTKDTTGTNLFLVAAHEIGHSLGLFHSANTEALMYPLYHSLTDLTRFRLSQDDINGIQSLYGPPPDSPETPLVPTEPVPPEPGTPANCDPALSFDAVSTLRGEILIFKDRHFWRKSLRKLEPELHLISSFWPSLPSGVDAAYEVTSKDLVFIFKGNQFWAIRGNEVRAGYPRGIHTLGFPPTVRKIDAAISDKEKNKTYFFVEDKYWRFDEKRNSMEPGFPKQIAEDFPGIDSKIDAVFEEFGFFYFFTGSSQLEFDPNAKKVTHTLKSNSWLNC

MMP-1 = target: T1, MMP-1 (Homo sapiens, UniProt P03956); conditions: cited from earlier work
T1 sequence (P03956 100-469): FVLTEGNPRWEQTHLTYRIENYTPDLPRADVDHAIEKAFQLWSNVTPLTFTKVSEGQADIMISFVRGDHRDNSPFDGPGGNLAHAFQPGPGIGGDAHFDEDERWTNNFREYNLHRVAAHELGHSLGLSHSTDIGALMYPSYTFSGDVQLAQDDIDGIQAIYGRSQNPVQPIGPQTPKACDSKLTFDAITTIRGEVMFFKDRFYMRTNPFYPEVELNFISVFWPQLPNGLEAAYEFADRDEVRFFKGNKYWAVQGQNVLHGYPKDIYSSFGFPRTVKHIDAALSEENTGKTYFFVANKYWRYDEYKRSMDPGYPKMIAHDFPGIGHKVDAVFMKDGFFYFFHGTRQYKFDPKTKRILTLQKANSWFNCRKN

[1] = test system: primary human brain endothelial cells (BECs), brain pericytes, and astrocytes; experiment: BBB MVN formation under IF with MMP-2 specific inhibitor; assay type: cell-based
Protocol: BBB MVN were formed, consisting of primary human brain endothelial cells (BECs), brain pericytes, and astrocytes.
Triculture were then seeded into single channel devices and grown under IF.
All MVN tissues were immunstained and studied for histology and morphology. Quantitative PCR was also performed to measure MMP-2 levels. The effect of a MMP-2 specific inhibitor was also tested in the BBB model to antagonize the effect induced by IF, as observed in MVNs formed with HUVEC monoculture or HUVEC and HLF co-culture.

MMP-2 = target: T2, MMP-2 (Homo sapiens, UniProt P08253); conditions: cited from earlier work
T2 sequence (P08253 110-660): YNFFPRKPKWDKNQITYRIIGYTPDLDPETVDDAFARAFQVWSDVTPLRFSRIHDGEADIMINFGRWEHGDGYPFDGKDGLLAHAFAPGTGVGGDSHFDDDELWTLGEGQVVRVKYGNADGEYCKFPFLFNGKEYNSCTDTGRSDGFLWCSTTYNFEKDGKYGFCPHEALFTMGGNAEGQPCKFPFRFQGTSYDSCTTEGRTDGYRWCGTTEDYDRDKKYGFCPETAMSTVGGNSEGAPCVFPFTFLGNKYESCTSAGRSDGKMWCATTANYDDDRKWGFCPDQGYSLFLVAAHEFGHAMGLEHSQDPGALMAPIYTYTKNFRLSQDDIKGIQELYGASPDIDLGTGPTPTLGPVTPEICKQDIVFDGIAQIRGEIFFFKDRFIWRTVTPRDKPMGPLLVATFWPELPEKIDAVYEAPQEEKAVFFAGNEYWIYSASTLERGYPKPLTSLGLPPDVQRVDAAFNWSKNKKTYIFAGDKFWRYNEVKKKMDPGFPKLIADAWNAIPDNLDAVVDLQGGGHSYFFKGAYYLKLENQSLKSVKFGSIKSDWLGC

MMP-7 = target: T3, MMP-7 (Homo sapiens, UniProt P09237); conditions: cited from earlier work
T3 sequence (P09237 95-267): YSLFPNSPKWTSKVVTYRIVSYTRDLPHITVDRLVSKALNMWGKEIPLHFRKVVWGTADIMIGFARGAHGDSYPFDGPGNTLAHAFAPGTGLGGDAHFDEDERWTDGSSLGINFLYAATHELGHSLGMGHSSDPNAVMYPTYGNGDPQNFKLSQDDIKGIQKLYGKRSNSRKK

[2] = test system: MVN formed by HUVEC monoculture; experiment: Vascular permeability of 40 kDa dextran in perfusable MVN; assay type: cell-based, human; conditions: HUVEC monoculture with 10 μM inhibitor under IF
Protocol: as §1, with “FIG. 8E is a graph of vascular permeability measurements of 40 kDa dextran for perfusable MVNs formed under various conditions. n=3 devices for each group, 3 measurements were performed in each device at different ROIs.” left out
In summary, MVN formed without supporting cells tends to be leakier. Since vascular permeability is a critical aspect of functionality of engineered MVN, vascular permeability of 40 kD dextran was measured and compared under various conditions where perfusable vessels can be robustly formed. […] Moreover, all the measurements were in the order of 10^−8 cm/s, which are quite low for vascular permeability measured using 40 kDa dextran. […]

Question: Which “changes in formed MVN” value (HUVEC monoculture; 50 μM) does the source give for `CCCC(C)NC(=O)c1ccc(Cl)c(Cl)c1` (stereo not drawn) [NSC 405020] here?
Answer: The value was “didn't induce any noticeable changes in formed MVN”.

Question: With `CNC(=O)[C@@H](NC(=O)[C@H](CC(C)C)[C@H](O)C(=O)NO)C(C)(C)C` [marimast] as the molecule, how does the vessel formation (HUVEC monoculture; 50 μM, 5 days) read?
Answer: The vessel formation was “completely disrupted the vessel formation process”.

Question: Which “development of fully perfusable MVN” value (HUVEC monoculture; 100 uM in culture media) does the source give for plasminogen activator inhibitor-1 here?
Answer: Its value is “did not affect the development of fully perfusable MVN”.

Question: With aprotinin as the molecule, how does the “development of fully perfusable MVN” value (HUVEC monoculture; 200 U/ml in culture media) read?
Answer: The value was “did not affect the development of fully perfusable MVN”.

Question: With `CC(C)ON(CC(=O)NO)S(=O)(=O)c1ccc(-c2ccccc2)cc1` [ARP-100] as the molecule, how does the “perfusability of MVN” value (HUVEC and HLF coculture) read?
Answer: The value was “can maintain high perfusability”.

Question: What about the IC50 (MMP-9) of the same molecule?
Answer: The IC50 was 0.2 µM.

Question: And the IC50 (MMP-3)?
Answer: The IC50 was 4.5 µM.

Question: And the IC50 (MMP-1)?
Answer: Its IC50 is greater than 50 µM.

Question: And the “BBB network vessel morphology” value ([1]; day 3, 20 uM compared with 10 μM)?
Answer: The value was “thinner and sparser vessels”.

Question: And the “BBB network perfusability and morphology” value ([1]; day 6, higher concentration (20 uM))?
Answer: Its value is “disconnected thin network segments without any perfusable vessels”.

Question: What about the “BBB network perfusability and morphology” value ([1]; day 6, low concentration (10 μM)) of the same molecule?
Answer: The value was “became perfusable with much thinner vessels compared to untreated ones”.

Question: What about the IC50 (MMP-2) of the same molecule?
Answer: Its IC50 is 0.012 µM.

Question: What about the “MVN morphology (vessel diameter, coverage area, branches)” value (HUVEC monoculture; 10 μM) of the same molecule?
Answer: The value was “significantly narrower vessels, reduced coverage area and increased branches; also recorded: effectively reduced the average diameter and coverage area of vessels”.

Question: What about the “perfusability of MVN” value (HUVEC monoculture; 10 μM, in comparison with control group) of the same molecule?
Answer: Its value is “perfusability well maintained”.

Question: What about the “perfusion of MVN with dextran dye” value (HUVEC monoculture; 20 μM) of the same molecule?
Answer: Its value is “no vessels can be successfully perfused with dextran dye”.

Question: What about the network structure development (HUVEC monoculture; 50 uM, day 5) of the same molecule?
Answer: The network structure development was “complete failure in developing network structure”.

Question: What about the IC50 (MMP-7) of the same molecule?
Answer: Its IC50 is greater than 50 µM.

Question: What about the “vascular permeability of 40 kD dextran” value [2] of the same molecule?
Answer: The value was ~10^−8 cm/s.
